Laboratory results published in patent US6028102A, “Anticonvulsant drugs and pharmaceutical compositions thereof” (priority 1998, dated 2000).
Like-named read-outs stand apart in the source and are kept apart here. Peptide text beside a SMILES is read from it. * marks the point of attachment. Cbz = O=C(OCc1ccccc1)*

Legend:
[1] = mice; Kohn et al 1988, 1990, 1991; Conley and Kohn, 1987; cited from earlier work
[2] = in vivo, cited from earlier work
[3] = Screening of anticonvulsant activity; type: in vivo, mice; details: for anticonvulsant activity: ip administration (300 mg) to mice; for anticonvulsant activity in words: overall finding of the study
Protocol: Screening of Anticonvulsant Activity
Compounds I-XI were screened in carworth farm #1 mice (ip--in a volume of 0.01 mL/g of body weight) and sprague-Dawley rats (po--in a volume of 0.004 mL/g of body weight) for their anticonvulsant activity and neurotoxicity by the NIH epilepsy Branch [Porter et al, 1984]. The screening procedure involved the following:
1) the maximal electroshock (MES) test, which measures seizure spread; 2) the subcutaneous pentylenetetrazol test (sc Met test) which measures seizure threshold; and 3) the rotored ataxia test which assesses neurotoxicity.
Applicants therefore decided to derivatize glycinamide and the above dipeptides by synthesizing their N-acetyl and N'-benzyl derivatives (compounds IV-VIII). […] Therefore, this compound was further analyzed quantitatively and its ED50 data and protective indices in comparison to phthaloyl glycinamide and valproyl glycinamide--TV 1901 [17] are presented in Table 2. As a consequence of their anticonvulsant activity, the pharmacokinetics of compounds VII and IX were investigated following iv administration (400 mg) to six dogs, and the mean plasma levels of compounds VII and IX are presented in FIGS. 1 and 2, respectively.

[4] = mice and rats / rodents; cited from earlier work
[5] = mice; Freed, 1985; cited from earlier work
[6] = electroshock, metrazole and homocysteine; Freed et al, 1979; cited from earlier work
[7] = Pharmacokinetic analysis following iv administration to dogs; type: in vivo; details: dog, in vivo
Protocol: The experiments were carried out on six male dogs (mongrels), ranging in weight between 18 and 22 kg. In a randomized cross over design, each dog was injected intravenously (in 1.5 mL of DMSO) with a dose of 400 mg of N-acetyl,N'-benzylglycinamide (VII), 404 mg (on dose equivalent to 400 mg of compound VII) of Z-glycinamide (IX) and 406 mg of Z-glycine (VIII). Urine was collected systematically for 12 hours after dosing, by means of an indwelling catheter.
Venous blood samples (6 mL) were collected via an indwelling catheter (from the cephalic vein) at specified intervals following injection (0, 5, 10, 20, 30, 45 minutes and 1, 1.5, 2, 2.5, 3, 4, 5, 6, 7, 8, 10 and 12 hours respectively). The plasma was then immediately separated by centrifugation at 3000 g for 15 minutes and stored at -20° C. Before each assay, the plasma was allowed to reach room temperature, vortexed, centrifuged and the residual clot removed.
Urine samples were collected via a urine catheter at specified intervals following injection (0, 1, 2, 3, 4, 5, 6, 7, 8, 9, 10 and 12 hours respectively), the samples volume were measured and the urine samples were stored at -20° C. Plasma and urine levels of compounds VII, VIII and IX were then assayed by a HPLC assay described herein below.
HPLC Assay for Monitoring N-acetyl,N'-benzylglycinamide (VII) and N-benzyloxycarbonylglycinamide (IX) in Dog Plasma and Urine
Plasma samples are allowed to reach room temperature, vortexed and centrifuged. The plasma was then assayed as follows:
To 0.5 mL of plasma, 10 μg of an internal standard (N-benzyl-oxycarbonylglycinamide (IX)) and 4 mL of tert-butylmethylether were added. The mixture was vigorously vortexed for 30 seconds, centrifuged for 10 minutes at 3000 g, the organic phase was separated and evaporated to dryness (using a vortex evaporator). To the residue, 80 μl of methanol were added, the mixture was vortexed and 30 μl were injected into the HPLC (Schimadzu SCL-10A with a UV-visible detector model SPD-10A).
Urine samples are allowed to reach room temperature, vortexed and centrifuged. The urine was then assayed as follows:
To 0.25 mL of urine, 10 μg of internal standard (N-benzyl-oxycarbonylglycinamide (IX)), 100 μl of hydrochloric acid solution (1 N) and 4 mL of tert-butylmethylether were added. The mixture was vigorously vortexed for 30 seconds and centrifuged for 10 minutes at 3000 g, the organic phase was separated and transferred to another test tube containing 0.5 mL of sodium hydroxide solution (1N), the mixture was vigorously vortexed for 30 seconds, centrifuged for 10 minutes at 3000 g, the organic phase was separated and evaporated to dryness (using a vortex evaporator). To the residue, 80 μl of methanol were added, the mixture was vortexed and 30 μl were injected into the HPLC.
HPLC conditions: HPLC column; Hypersil ODS (C-18) 5μ, 4.6×150 mm; Wavelength: 258 nm; Mobile phase: 60% water, 40% methanol and 0.01% trifluoroacetic acid.
The same assay was used for monitoring N-benzyloxycarbonyl-glycinamide (IX) in dog plasma and dog urine using N-acetyl,N'-benzylglycinamide as an internal standard.
HPLC Assay for Monitoring Z-glycine (VIII) in Dog Plasma and Urine
To 0.5 mL of plasma, 10 μg of internal standard (Z-GABA), 100 μl of hydrochloric acid solution (1N) and 5 mL of tert-butylmethylether were added. The mixture was vigorously vortexed for 30 seconds, centrifuged for 10 minutes at 3000 g, the organic phase was separated and evaporated to dryness (using a vortex evaporator). To the residue, 100 μl of mobile phase were added, the mixture was vortexed and 30 μl were injected to the HPLC.
Urine samples was allowed to reach room temperature, vortexed and centrifuged. The urine was then assayed as follows:
To 0.1 mL of urine, 30 μg of internal standard (Z-GABA) and 5 mL of tert-butylmethylether were added. The mixture was vigorously vortexed for 30 seconds, centrifuged for 10 minutes at 3000 g, the organic phase was separated off. […]

[8] = rats; Lambert et al. [1994]; cited from earlier work
[9] = dogs, iv, mean, Table 3, cited from earlier work; for CL / MRT / Vss / Vβ / t1/2: data from Salach et al 1994, Hadad and Bialer 1995
[10] = ip, mice; data from Salach et al (1994), Hadad and Bialer (1995); cited from earlier work
[11] = ip, mice, cited from earlier work; for sc Met, ED50: data from Salach et al (1994), Hadad and Bialer (1995)
[12] = ip, mice; data from Salach et al (1994), Hadad and Bialer (1995); cited from earlier work; remark: listed apart in the source

CC(=O)N[C@@H](C(=O)NCc1ccccc1)c1ccc[nH]1 (racemic) [(R,S)-2-acetamido-N-benzyl-2-pyrolacetamide]
anticonvulsant activity in MES test [1]: more potent than the analogous alanine and phenylglycine derivatives

CC(=O)NC(C)C(=O)NCc1ccccc1 (racemic) [N-acetyl,N'-benzyl DL-alaninamide]
anticonvulsant activity in MES test [1]: marked anticonvulsant activity

CC(=O)NC(C(=O)NCc1ccccc1)c1ccccc1 (racemic) [N-acetyl,N'-benzyl DL-phenyl glycinamide]
anticonvulsant activity in MES test [1]: marked anticonvulsant activity

NCCCC(=O)O [GABA]
effect upon oral or systemic administration [2]: neither GABA nor glycine are effective upon oral or systemic administration
blood-brain barrier passage [2]: inability to cross the blood brain barrier

NCC(=O)NCC(=O)O [I, Glycylglycine] (H-Gly-Gly-OH)
anticonvulsant activity [3]: did not show anticonvulsant activity

NCC(=O)NCC(N)=O [II, Glycylglycinamide]
anticonvulsant activity [3]: did not show anticonvulsant activity

NCCCC(=O)NCC(N)=O [III, Gaboylglycinamide]
anticonvulsant activity [3]: did not show anticonvulsant activity

CCC=C(CCC)C(=O)NCC(N)=O [N-2-enevalproyl glycinamide]
anticonvulsant activity in words [4]: good anticonvulsant activity in rodents

O=C(O)CNC(=O)CNC(=O)OCc1ccccc1 [X, N-benzyloxycarbonyl glycylglycine] (Cbz-Gly-Gly-OH)
anticonvulsant activity in words [3]: inactive as anticonvulsant

NC(=O)CNC(=O)CNC(=O)OCc1ccccc1 [XI, N-Benzyloxycarbonyl Glycylglycinamide] (Cbz-Gly-Gly-NH2)
anticonvulsant activity in words [3]: inactive as anticonvulsant

C[N+](C)(C)CC(=O)O [betaine, N,N,N-trimethyl glycine]
antagonism of strychnine-induced seizures [5]: antagonized
block of induction of convulsions [6]: block the induction of convulsions

CC(=O)NCC(=O)NCC(N)=O [compound VI, N-Acetylglycylglycinamide]
anticonvulsant activity in words [3]: inactive as anticonvulsant

O=C(O)CNC(=O)OCc1ccccc1 [compound VIII, N-benzyloxycarbonylglycine]
anticonvulsant activity in words [3]: lack of activity
anticonvulsant activity in words ([3]; listed as Z-glycine): inactive in this study
fm (fraction metabolized of Z-glycinamide to Z-glycine) [7]: 80.1 ± 13.6%
half-life [7]: 0.6 ± 0.14 h
pharmacokinetics and elimination in words [7]: its t1/2 was the shortest
Mu/D (fraction of Z-glycine excreted in the urine as a metabolite of Z-glycinamide) ([7]; 720 min): 20 ± 19.8%
clearance ([7]; CL): 90 mL/min
MRT ([7]; MRT): 0.8 ± 0.1 h
Vd ([7]; VSS / volume of distribution): 0.2 L/kg
Vd ([7]; Vss): 4.9 ± 0.6 L
Vd ([7]; Vβ): 4.5 ± 0.8 L
anticonvulsant activity relative to glycine [8]: far more active than glycine

CC(C)C(C(=O)NCC(N)=O)C(C)C [diisopropyl acety glycinamide]
anticonvulsant activity in words [4]: good anticonvulsant activity in rodents

CN(C)CC(=O)O [dimethylglycine]
antagonism of strychnine-induced seizures [5]: antagonized

NCC(=O)O [glycine]
effect upon oral or systemic administration [2]: neither GABA nor glycine are effective upon oral or systemic administration
blood-brain barrier passage [2]: does not readily cross the blood-brain barrier

NC(=O)CN1C(=O)c2ccccc2C1=O [phthaloyl glycinamide, phthaloylglycinamide]
CL [9]: 9 L/h
MRT [9]: 4.6 ± 0.9 h
Vss [9]: 46 ± 13 L
Vβ [9]: 48 ± 13 L
t1/2 [9]: 3.4 ± 0.7 h
fe (fraction excreted unchanged in urine) ([9]; data from Salach et al 1994, 720 min): 7.0 ± 0.7%
MES, ED50 [10]: 94 mg/kg
PI, MES (Protective index, ratio of TD50 to ED50) [10]: > 64
sc Met, ED50 [11]: > 400 mg/kg
Neurotoxicity, TD50 [12]: > 600 mg/kg

CNCC(=O)O [sarcosine, N-methylglycine]
antagonism of strychnine-induced seizures [5]: antagonized

CC1(C)C(C(=O)NCC(N)=O)C1(C)C [tetramethylcyclopropylcarbonyl glycinamide]
anticonvulsant activity in words [4]: good anticonvulsant activity in rodents

CCC(C)C(CC)C(=O)NCC(N)=O (centres unmarked) [valnoctyl glycinamide]
anticonvulsant activity in words [4]: good anticonvulsant activity in rodents

CCCC(CCC)C(=O)NCC(N)=O [valproyl glycinamide, N-valproyl glycinamide]
CL [9]: 3 ± 0.8 L/h
MRT [9]: 4.6 ± 0.7 h
Vss [9]: 12 ± 3 L
Vβ [9]: 11 ± 3 L
t1/2 [9]: 2.7 ± 0.5 h
anticonvulsant activity in words [4]: good anticonvulsant activity in both mice and rats
MES, ED50 [10]: 152 mg/kg
PI, MES (Protective index, ratio of TD50 to ED50) [10]: 2.4
PI, sc Met (Protective index, ratio of TD50 to ED50) ([11]; data from Hadad and Bialer (1995)): 2.9
sc Met, ED50 [11]: 127 mg/kg
